Measurements: ChEMBL document CHEMBL5608246, “Membrane-Targeting Amphiphilic Honokiol Derivatives Containing an Oxazole Moiety as Potential Antibacterials against Methicillin-Resistant Staphylococcus aureus” (J Med Chem, 2024)
Values after ≈ are worked out from the molar mass of the structure shown.

Columns and labels:
[1] = tested on: Escherichia coli; test: Antibacterial activity against Escherichia coli ATCC 25922 incubated for 16 to 18 hrs by broth dilution method; assay type: functional; conditions: time 16-18 hrs
[2] = Hemolytic activity in sheep RBC incubated for 1 hr; assay type: toxicity, cell-based, Ovis aries, Erythrocyte; conditions: sheep red blood cells (erythrocytes)
[3] = tested on: Staphylococcus aureus; test: Antibacterial activity against methicillin resistant Staphylococcus aureus M22 incubated for 16 to 18 hrs by broth dilution method; assay type: functional; conditions: time 16-18 hrs
[4] = tested on: Staphylococcus aureus; test: Antibacterial activity against Staphylococcus aureus ATCC 29213 incubated for 16 to 18 hrs by broth dilution method; assay type: functional; conditions: time 16-18 hrs
[5] = Selectivity index, ratio of HC50 for sheep RBC to MIC for Staphylococcus aureus ATCC 29213; assay type: toxicity; conditions: sheep red blood cells, read-out: Selectivity Index
[6] = tested on: Staphylococcus aureus; test: Antibacterial activity against methicillin resistant Staphylococcus aureus M11 incubated for 16 to 18 hrs by broth dilution method; assay type: functional; conditions: time 16-18 hrs
[7] = tested on: Staphylococcus aureus; test: Antibacterial activity against methicillin resistant Staphylococcus aureus M14 incubated for 16 to 18 hrs by broth dilution method; assay type: functional; conditions: time 16-18 hrs
[8] = tested on: Staphylococcus aureus; test: Antibacterial activity against methicillin resistant Staphylococcus aureus M23 incubated for 16 to 18 hrs by broth dilution method; assay type: functional; conditions: time 16-18 hrs
[9] = tested on: Staphylococcus aureus; test: Antibacterial activity against methicillin resistant Staphylococcus aureus M13 incubated for 16 to 18 hrs by broth dilution method; assay type: functional; conditions: time 16-18 hrs
[10] = tested on: Staphylococcus aureus; test: Antibacterial activity against methicillin resistant Staphylococcus aureus M12 incubated for 16 to 18 hrs by broth dilution method; assay type: functional; conditions: time 16-18 hrs
[11] = tested on: Staphylococcus aureus; test: Antibacterial activity against methicillin resistant Staphylococcus aureus M21 incubated for 16 to 18 hrs by broth dilution method; assay type: functional; conditions: time 16-18 hrs
[12] = tested on: Staphylococcus aureus; test: Antibacterial activity against methicillin resistant Staphylococcus aureus M20 incubated for 16 to 18 hrs by broth dilution method; assay type: functional; conditions: time 16-18 hrs
[13] = tested on: Staphylococcus aureus; test: Antibacterial activity against methicillin resistant Staphylococcus aureus N315 incubated for 16 to 18 hrs by broth dilution method; assay type: functional; conditions: time 16-18 hrs
[14] = tested on: Staphylococcus aureus; test: Antibacterial activity against methicillin resistant Staphylococcus aureus M17 incubated for 16 to 18 hrs by broth dilution method; assay type: functional; conditions: time 16-18 hrs
[15] = tested on: Staphylococcus aureus; test: Antibacterial activity against methicillin resistant Staphylococcus aureus M16 incubated for 16 to 18 hrs by broth dilution method; assay type: functional; conditions: time 16-18 hrs

C=CCc1cc(-c2ccc(OCCC[N+](C)(C)CC(=O)NCCCC)c(CC=C)c2)c2oc(-c3cccc(Br)c3)nc2c1.[Br-]
MIC [1]: > 128 µg/mL | HC50 at 1 h [2]: > 320 µg/mL | MIC [3]: 8 µg/mL | MIC [4]: 32 µg/mL | selectivity ratio [5]: > 10 | MIC [6]: 8 µg/mL | MIC [7]: 8 µg/mL | MIC [8]: 8 µg/mL | MIC [9]: 8 µg/mL | MIC [10]: 8 µg/mL | MIC [11]: 8 µg/mL | MIC [12]: 8 µg/mL | MIC [13]: 64 µg/mL | MIC [14]: 8 µg/mL | MIC [15]: 8 µg/mL

C=CCc1cc(-c2ccc(OCCC[N+](C)(C)CC(=O)NCCCC)c(CC=C)c2)c2oc(-c3ccc(Cl)cc3F)nc2c1.[Br-]
MIC [1]: 128 µg/mL | HC50 at 1 h [2]: > 640 µg/mL | MIC [3]: 128 µg/mL | MIC [4]: > 128 µg/mL | MIC [6]: > 128 µg/mL | MIC [7]: 64 µg/mL | MIC [8]: 128 µg/mL | MIC [9]: > 128 µg/mL | MIC [10]: 128 µg/mL | MIC [11]: 128 µg/mL | MIC [12]: 128 µg/mL | MIC [13]: > 128 µg/mL | MIC [14]: 128 µg/mL | MIC [15]: 128 µg/mL

C=CCc1cc(-c2ccc(OCCC[N+](C)(C)CC(=O)NCCCC)c(CC=C)c2)c2oc(-c3cc(Br)ccc3F)nc2c1.[Br-]
MIC [1]: 128 µg/mL | HC50 at 1 h [2]: > 320 µg/mL | MIC [3]: 8 µg/mL | MIC [4]: 64 µg/mL | selectivity ratio [5]: > 5 | MIC [6]: 8 µg/mL | MIC [7]: 4 µg/mL | MIC [8]: 8 µg/mL | MIC [9]: 4 µg/mL | MIC [10]: 8 µg/mL | MIC [11]: 4 µg/mL | MIC [12]: 4 µg/mL | MIC [13]: 32 µg/mL | MIC [14]: 4 µg/mL | MIC [15]: 8 µg/mL

C=CCc1cc(-c2ccc(OCCC[N+](C)(C)CC(=O)NCCCC)c(CC=C)c2)c2oc(-c3ccc(Cl)c(F)c3)nc2c1.[Br-]
MIC [1]: 128 µg/mL | HC50 at 1 h [2]: 81 µg/mL | MIC [3]: 8 µg/mL | MIC [4]: 64 µg/mL | selectivity ratio [5]: 1.3 | MIC [6]: 8 µg/mL | MIC [7]: 4 µg/mL | MIC [8]: 8 µg/mL | MIC [9]: 8 µg/mL | MIC [10]: 16 µg/mL | MIC [11]: 8 µg/mL | MIC [12]: 8 µg/mL | MIC [13]: 8 µg/mL | MIC [14]: 16 µg/mL | MIC [15]: 8 µg/mL

C=CCc1cc(-c2ccc(OCCC[N+](C)(C)CC(=O)NCCCC)c(CC=C)c2)c2oc(-c3ccc(F)cc3)nc2c1.[Br-]
MIC [1]: > 128 µg/mL | HC50 at 1 h [2]: > 320 µg/mL | MIC [3]: 8 µg/mL | MIC [4]: 32 µg/mL | selectivity ratio [5]: > 10 | MIC [6]: 16 µg/mL | MIC [7]: 8 µg/mL | MIC [8]: 8 µg/mL | MIC [9]: 8 µg/mL | MIC [10]: 16 µg/mL | MIC [11]: 8 µg/mL | MIC [12]: 8 µg/mL | MIC [13]: 16 µg/mL | MIC [14]: 8 µg/mL | MIC [15]: 8 µg/mL

C[C@@H](O)[C@H]1C(=O)N2C(C(=O)O)=C(S[C@@H]3CN[C@H](C(=O)N(C)C)C3)[C@H](C)[C@H]12 [MEROPENEM]
MIC [1]: 0.063 µg/mL (≈ 0.164 µM)

C=CCc1cc(-c2ccc(OCCC[N+](C)(C)CC(=O)NCCCC)c(CC=C)c2)c2oc(-c3cc(Br)cc(Br)c3)nc2c1.[Br-]
MIC [1]: 128 µg/mL | HC50 at 1 h [2]: 205 µg/mL | MIC [3]: 128 µg/mL | MIC [4]: 128 µg/mL | selectivity ratio [5]: 1.6 | MIC [6]: 128 µg/mL | MIC [7]: 128 µg/mL | MIC [8]: 128 µg/mL | MIC [9]: > 128 µg/mL | MIC [10]: > 128 µg/mL | MIC [11]: 64 µg/mL | MIC [12]: > 128 µg/mL | MIC [13]: 128 µg/mL | MIC [14]: 128 µg/mL | MIC [15]: 128 µg/mL

C=CCc1cc(-c2ccc(OCCC[N+](C)(C)CC(=O)NCCCC)c(CC=C)c2)c2oc(-c3ccc(F)c(Br)c3)nc2c1.[Br-]
MIC [1]: 128 µg/mL | HC50 at 1 h [2]: 48.5 µg/mL | MIC [3]: 32 µg/mL | MIC [4]: 128 µg/mL | selectivity ratio [5]: 0.4 | MIC [6]: 8 µg/mL | MIC [7]: 8 µg/mL | MIC [8]: 16 µg/mL | MIC [9]: 8 µg/mL | MIC [10]: 16 µg/mL | MIC [11]: 8 µg/mL | MIC [12]: 8 µg/mL | MIC [13]: 128 µg/mL | MIC [14]: 16 µg/mL | MIC [15]: 16 µg/mL

C=CCc1cc(-c2ccc(OCCC[N+](C)(C)CC(=O)NCCCC)c(CC=C)c2)c2oc(-c3ccc(F)c(Cl)c3)nc2c1.[Br-]
MIC [1]: > 128 µg/mL | HC50 at 1 h [2]: > 320 µg/mL | MIC [3]: 16 µg/mL | MIC [4]: 64 µg/mL | selectivity ratio [5]: > 5 | MIC [6]: 8 µg/mL | MIC [7]: 4 µg/mL | MIC [8]: 8 µg/mL | MIC [9]: 8 µg/mL | MIC [10]: 8 µg/mL | MIC [11]: 8 µg/mL | MIC [12]: 8 µg/mL | MIC [13]: 16 µg/mL | MIC [14]: 32 µg/mL | MIC [15]: 8 µg/mL

C=CCc1cc(-c2ccc(OCCC[N+](C)(C)CC(=O)NCCCC)c(CC=C)c2)c2oc(-c3ccc(Cl)cc3)nc2c1.[Br-]
MIC [1]: > 128 µg/mL | HC50 at 1 h [2]: > 640 µg/mL | MIC [3]: 8 µg/mL | MIC [4]: 16 µg/mL | selectivity ratio [5]: > 40 | MIC [6]: 4 µg/mL | MIC [7]: 8 µg/mL | MIC [8]: 4 µg/mL | MIC [9]: 4 µg/mL | MIC [10]: 4 µg/mL | MIC [11]: 4 µg/mL | MIC [12]: 8 µg/mL | MIC [13]: 8 µg/mL | MIC [14]: 4 µg/mL | MIC [15]: 4 µg/mL

C=CCc1cc(-c2ccc(OCCC[N+](C)(C)CC(=O)NCCCC)c(CC=C)c2)c2oc(-c3cc(F)c(F)c(F)c3)nc2c1.[Br-]
MIC [1]: > 128 µg/mL | HC50 at 1 h [2]: 64.4 µg/mL | MIC [3]: 64 µg/mL | MIC [4]: > 128 µg/mL | selectivity ratio [5]: < 0.5 | MIC [6]: 32 µg/mL | MIC [7]: 32 µg/mL | MIC [8]: 32 µg/mL | MIC [9]: 32 µg/mL | MIC [10]: 128 µg/mL | MIC [11]: 32 µg/mL | MIC [12]: 64 µg/mL | MIC [13]: 64 µg/mL | MIC [14]: 64 µg/mL | MIC [15]: 32 µg/mL

C=CCc1cc(-c2ccc(OCCC[N+](C)(C)CC(=O)NCCCC)c(CC=C)c2)c2oc(-c3ccc(C(F)(F)F)cc3)nc2c1.[Br-]
MIC [1]: 128 µg/mL | HC50 at 1 h [2]: 59.5 µg/mL | MIC [3]: 32 µg/mL | MIC [4]: 128 µg/mL | selectivity ratio [5]: 0.5 | MIC [6]: 8 µg/mL | MIC [7]: 16 µg/mL | MIC [8]: 8 µg/mL | MIC [9]: 8 µg/mL | MIC [10]: 16 µg/mL | MIC [11]: 8 µg/mL | MIC [12]: 8 µg/mL | MIC [13]: 128 µg/mL | MIC [14]: 32 µg/mL | MIC [15]: 8 µg/mL

C=CCc1cc(-c2ccc(OCCC[N+](C)(C)CC(=O)NCCCC)c(CC=C)c2)c2oc(-c3ccccc3)nc2c1.[Br-]
MIC [1]: > 128 µg/mL | HC50 at 1 h [2]: > 160 µg/mL | MIC [3]: 2 µg/mL | MIC [4]: 8 µg/mL | selectivity ratio [5]: > 20 | MIC [6]: 2 µg/mL | MIC [7]: 4 µg/mL | MIC [8]: 2 µg/mL | MIC [9]: 2 µg/mL | MIC [10]: 2 µg/mL | MIC [11]: 2 µg/mL | MIC [12]: 2 µg/mL | MIC [13]: 16 µg/mL | MIC [14]: 1 µg/mL | MIC [15]: 4 µg/mL

C=CCc1cc(-c2ccc(OCCC[N+](C)(C)CC(=O)NCCCC)c(CC=C)c2)c2oc(-c3ccc(Cl)cc3Br)nc2c1.[Br-]
MIC [1]: > 128 µg/mL | HC50 at 1 h [2]: > 320 µg/mL | MIC [3]: 128 µg/mL | MIC [4]: > 128 µg/mL | MIC [6]: 128 µg/mL | MIC [7]: 128 µg/mL | MIC [8]: > 128 µg/mL | MIC [9]: > 128 µg/mL | MIC [10]: > 128 µg/mL | MIC [11]: > 128 µg/mL | MIC [12]: > 128 µg/mL | MIC [13]: > 128 µg/mL | MIC [14]: > 128 µg/mL | MIC [15]: 128 µg/mL
